Activity calls are given as the source filed them. The rule behind the calls is not given here.
Target: Sphingosine 1-phosphate receptor 3 (Homo sapiens) (UniProt Q99500)
Experiment: S1P3 radioligand displacement, late-stage follow-up, mechanism study for S1P3 agonist project, cell-based, [33P]S1P, radiometric, dose response (AID 588327)
Details: S1P3 membranes, [33P]S1P competition binding, CPM

Sphingosine 1-phosphate receptor 3 (Homo sapiens), sequence (Q99500 whole entry, looked up): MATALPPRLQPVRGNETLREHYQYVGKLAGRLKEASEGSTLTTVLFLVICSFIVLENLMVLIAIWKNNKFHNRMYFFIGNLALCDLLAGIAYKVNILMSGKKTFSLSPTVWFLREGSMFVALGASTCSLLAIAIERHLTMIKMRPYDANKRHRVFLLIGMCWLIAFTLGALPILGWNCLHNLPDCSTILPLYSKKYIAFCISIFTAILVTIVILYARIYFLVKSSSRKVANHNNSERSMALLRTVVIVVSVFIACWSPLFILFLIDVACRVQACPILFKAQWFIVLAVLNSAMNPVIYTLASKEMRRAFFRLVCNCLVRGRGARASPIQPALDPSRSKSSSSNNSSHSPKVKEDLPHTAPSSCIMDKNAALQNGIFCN

O=C(c1cc(C2CC2)on1)N(C1CCCCC1)C1CCCCC1
IC50: > 10 µM (inactive)

Reference: PubChem BioAssay AID588327 (The Scripps Research Institute Molecular Screening Center, 2011)
